From patent US9814704B2, “Substituted pyrrolo[2,3-b]pyridines as MLK inhibitors” (The University of Rochester, priority 2008, dated 2017)
Read-outs that look alike come from different tables or passages of the source.

Legend:
[1] = Pharmacokinetic Evaluation in Mice; format: in vivo; parameters: unit not given here; conditions: single intravenous (IV) injection at 10 mg/kg, CL57 BL/6 mice, brain homogenate
Experimental: Pharmacokinetic Evaluation in Mice
Several compounds disclosed herein were evaluated in a standard murine pharmacokinetic model.
Compounds were dissolved in either 5% DMSO, 40% PEG400, and 55% saline (pH=8) or […], 40% PEG400, and 55% (20% HP-β-CD in deionized water; pH=8) to yield a nominal concentration of 2 mg/mL for intravenous administration. Compounds were administered via a single intravenous (IV) injection in CL57 BL/6 mice at 10 mg/kg in DMSO/PEG400 solution. Three mice in each group were used for blood and brain collection at each time point. Blood samples (300 μL) were collected via the retro-orbital vein predose and at 5 min, 0.25, 0.50, 1, 2, 4, 6, 8, and 24 hours postdose. Blood samples were placed into tubes containing sodium heparin and centrifuged under refrigerated conditions at 8000 rpm for 6 minutes to separate plasma from the samples. The brain of each animal was collected after the final blood collection. The whole tissue was harvested, excised and rinsed by saline, dried by filter paper, and then placed into one tube per tissue per animal. All samples were stored at −20° C. until bioanalysis.
Compound concentrations in plasma and brain homogenate were determined using a high performance liquid chromatography/mass spectrometry (HPLC/MS/MS) method (Agilent 1100 series HPLC, AB Inc. API4000 triple-quadrupole with an ESI interface and Analyst 1.4 software).
Results in the form of area under the time-versus-concentration curve (AUC) are given below in Table 5.

MLK3 = MLK3 (Homo sapiens (Human), UniProt Q16584); assay: Radiometric Filter Plate MLK3 Assay; format: biochemical; conditions: read-out: MK3 IC50
Chain of MLK3 (Q16584 whole entry): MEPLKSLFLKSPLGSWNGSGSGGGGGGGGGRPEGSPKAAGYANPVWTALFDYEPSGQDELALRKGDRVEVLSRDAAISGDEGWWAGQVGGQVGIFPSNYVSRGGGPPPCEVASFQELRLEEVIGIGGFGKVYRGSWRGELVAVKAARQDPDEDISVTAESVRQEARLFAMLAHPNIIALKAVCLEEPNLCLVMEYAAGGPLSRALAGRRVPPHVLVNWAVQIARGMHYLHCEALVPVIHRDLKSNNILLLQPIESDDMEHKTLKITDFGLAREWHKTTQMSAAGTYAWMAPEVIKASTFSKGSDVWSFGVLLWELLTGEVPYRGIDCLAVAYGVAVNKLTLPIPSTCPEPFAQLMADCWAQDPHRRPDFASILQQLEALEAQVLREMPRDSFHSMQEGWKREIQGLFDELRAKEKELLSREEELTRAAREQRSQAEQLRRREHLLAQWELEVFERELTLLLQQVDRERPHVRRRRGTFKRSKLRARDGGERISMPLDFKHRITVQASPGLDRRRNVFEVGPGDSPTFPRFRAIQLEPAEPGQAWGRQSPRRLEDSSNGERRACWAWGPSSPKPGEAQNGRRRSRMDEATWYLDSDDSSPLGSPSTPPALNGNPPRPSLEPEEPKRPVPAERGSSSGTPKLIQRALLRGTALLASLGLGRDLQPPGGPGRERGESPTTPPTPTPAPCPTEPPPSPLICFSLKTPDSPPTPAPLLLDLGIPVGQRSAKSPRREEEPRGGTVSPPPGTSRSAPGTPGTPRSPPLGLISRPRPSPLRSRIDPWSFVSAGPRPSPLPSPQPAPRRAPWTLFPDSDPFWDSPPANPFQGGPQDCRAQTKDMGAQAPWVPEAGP
Experimental: Radiometric Filter Plate MLK3 Assay
After a twenty minute incubation, the reactions were washed through filter plates and read on a scintillation counter. Results are shown in Table 4 below, in which +++ indicates ≦0.1 μM, ++ indicates >0.1 μM and ≦1 μM, and + indicates >1 μM.

[2] = 200 ng (130 nM) MLK3, 1 μM inactive MKK7b, 2 μM cold ATP (Km), 33P ATP, twenty minute incubation

Row | AUC Brain [1] | IC50 (MLK3) | IC50 (MLK3; [2]) | SMILES
1 | + (+ indicates ≧500) | < 100 nM | – | CN1CCN(Cc2ccc(-c3cnc4[nH]cc(-c5ccc6[nH]ccc6c5)c4c3)cc2)CC1 [Example 32, 3-(1H-indol-5-yl)-5-(4-((4-methylpiperazin-1-yl)methyl)phenyl)-1H-pyrrolo[2,3-b]pyridine]
2 | + (+ indicates ≧500) | – | < 100 nM | Nc1ncc(-c2cnc3[nH]cc(-c4ccc5[nH]ccc5c4)c3c2)cn1 [Example 9, 5-(3-(1H-indol-5-yl)-1H-pyrrolo[2,3-b]pyridin-5-yl)pyrimidin-2-amine]
3 | − (− indicates <500) | – | < 100 nM | COc1cc(-c2cnc3[nH]cc(-c4cnc(N)nc4)c3c2)cc(OC)c1OC [Example 17, 5-(5-(3,4,5-trimethoxyphenyl)-1H-pyrrolo[2,3-b]pyridin-3-yl)pyrimidin-2-amine]
